“And” between values parts separate entries of the source, which are not always exact repeats. Equal entries are not always repeated. Where two headings read alike, the source gives them in different places.
Assays:
[1] = test system: WM5 and 4 resistant P. falciparum; test: microbe, parasite or virus in culture; format: cell-based, Plasmodium falciparum
Method: After 72 h incubation at 37°C each well was fixed at room temperature for 30 min with 50 μL of 0.25% glutaraldehyde (ProSciTech) diluted in PBS. Following centrifugation at 1200 rpm for 1 min, supernatants were discarded and parasites were stained with 50 μL of 5X SYBR Green (Invitrogen) diluted in PBS. 50,000 cells were counted by flow cytometry using a Cell Lab Quanta SC – MPL Flow Cytometer (Beckman Coulter) ([Bacon et al., 2007]). Growth was expressed as a percentage of the parasitemia obtained using a vehicle control. All samples were tested in triplicate. EC50 values were determined using GraphPad Prism.
The parent and resistant lines were then cloned by limiting dilution, the EC50 for each line was determined and genomic DNA was purified from clonal parasites (QIAGEN Blood and Tissue Kit).

HepG2 cells = test: EC50 for HepG2 cells; format: cell-based; conditions: Homo sapiens
PMX = molecular target: T1, PMX (Plasmodium falciparum, UniProt Q8IAS0); format: binding, P. falciparum; conditions: CETSA
T1 construct: endogenous in cells
Method: Lysate CETSA experiments were conducted essentially as described ([Dziekan et al., 2019]). Samples for CETSA studies were prepared using highly synchronous schizont stage P. falciparum 3D7-PMIX_HA and 3D7-PMX_HA parasites. […] After 2–4 h incubation, mature schizonts were washed once with PBS and pelleted infected red blood cells were lysed in 20 volumes of 0.15% (w/v) saponin in PBS and incubated on ice for 20 min. Parasites were washed 3 times in ice-cold PBS and the final pellet was resuspended in 10 volumes of lysis buffer (0.4% NP-40 (Roche) / PBS) and lysed by three freezing (dry ice/ethanol bath) - thawing cycles. The lysates were cleared by centrifugation at 16,000 g for 30 min and the supernatant containing soluble parasite proteins kept at −80°C until use. […] The proteins were electrophoretically transferred to nitrocellulose membrane using a dry-blotting system (iBlot, Thermo Fisher Scientific). After blocking the membrane in 5% non-fat milk in TBST (M-TBST), PMIX_HA and PMX_HA were detected with anti-HA mAb 12CA5 (produced in-house) followed by HRP-conjugated a-mouse IgG Abs (Merck). Blots were developed with ECL Western Blotting Substrate (Thermo Fisher Scientific), and the images were generated and analyzed using ChemiDoc Gel Imaging System and Image Lab Software (Bio-Rad).

P. falciparum 3D7-PMX-HA = test: EC50 in knock down parasite line 3D7-PMX-HA; format: cell-based, Plasmodium falciparum; conditions: presence vs absence of 2.5 mM GlcN
3D7 parasite cultures = test: Time of drug killing; format: cell-based, Plasmodium falciparum; conditions: 80nM WM4, 40nM WM5, 5nM WM382, added to early rings
Method: 3D7 parasite cultures were synchronized using 5% sorbitol (Sigma) twice at 46 h intervals then again when the culture was a mix of late schizonts and early rings. […] The parasitemia of each culture was quantitated every 8 h for 48 h by collecting 50 μL samples for counting by flow cytometry (as previously described). The developmental stage of the parasites was confirmed at each time point by microscopic examination of Giemsa stained thin blood films. Media and compound were replaced at the 32 h time point.

[2] = test system: P. falciparum schizonts (3D7); test: P. falciparum schizont egress inhibition assay; format: cell-based, Plasmodium falciparum; conditions: compared with control
Method: Parasites purified by magnet separation (MACS; Miltenyi Biotec) were eluted into complete RPMI containing 1 nM Compound 1 (C1) to prevent further egress and synchronize egress to within a 5 min window ([Pino et al., 2017]). When schizont preparations were fully mature, the C1 was washed out with warm complete RPMI-HEPES medium and schizonts transferred to a microscopy chamber for live video time lapse (1 frame per 0.5 s) imaging under DIC conditions using a Zeiss Live Cell Axio observer microscope with x63 oil immersion objective and Zen Blue software used for image capture. Videos (Videos S1 and S2) were processed using Fiji (https://www.nature.com/articles/nmeth.2019). Total parasite numbers and egress events were calculated over 5 min window and expressed as average ± SD of 3 replicate experiments. Because the purified late-stage parasites cannot be fully synchronized to egress within the observation time window, only a proportion of the schizonts will egress during the period of observation. Because all treatment groups originated from the same culture (ie those treated with compound and DMSO vehicle control) the developmental stage is consistent between treatments and the difference in egress quantitation can be attributable to the drug treatment.

[3] = test system: P. falciparum merozoites (3D7); test: Invasion assay; format: cell-based, Plasmodium falciparum; conditions: 40 nM WM4; 2.5 nM WM382; merozoites released by mechanical rupture
Method: Late-stage parasites (> 40 h post invasion) were enriched by magnet separation (MACS; Miltenyi Biotec) and allowed to develop to fully segmented schizont-stage parasites. To prevent schizont rupture and merozoites release, control parasites were incubated with 1 μM compound 1 (C1). […] Filtrate containing purified merozoites was immediately added to fresh erythrocytes (70%–80% hematocrit), incubated in a shaker (1,100 rpm) at 37°C for 20 min to allow invasion of host cells, and then diluted to 2% hematocrit. After 24 h incubation at 37°C, invasion was evaluated by measuring parasitemia by microscopy (Giemsa-stained thin smears) and flow cytometry (100,000 cells counted with FACSCalibur, BD).

[4] = test system: protein processing by PMIX and PMX in P. falciparum; test: Processing inhibition assays (immunoblot of merozoites and supernatants); format: cell-based, Plasmodium falciparum; conditions: WM4 40 nM, WM382 2.5 nM; for AMA1 processing in merozoites / ASP processing / MTRAP processing / PMIX processing in parasites / RAP1 processing / RON3 processing / Rh1 processed fragments, release into the supernatant / SERA5 processing: E64 10 μM
Method: Processing inhibition assays were performed as previously described ([Boyle et al., 2010]). Synchronized late trophozoite/early schizont cultures to which protease inhibitors had already been added, were passed over LD magnetic columns (Miltenyi Biotech) to remove uninfected erythrocytes. The cysteine protease inhibitor E64 (Sigma) was used at 10 μM. […] A control dish without any protease inhibitor was also included. Parasites were eluted from columns with complete RPMI 1640 culture medium to which the appropriate inhibitor at the same concentration had been added. Eluted parasites were adjusted to 5x10^6 schizonts/mL and 150 ul added per well of a 96-well flat-bottomed culture dish. […] Parasites from each condition were spun at 10000 g/10 min so that merozoite and supernatant fractions could be separately collected. Proteins from both fractions were extracted with Reducing sample buffer and separated on 4%–12% or 3%–8% acrylamide gels (NuPAGE, Invitrogen).

[5] = molecular target: recombinant PMX protein (rPMX) (Plasmodium falciparum, UniProt Q8IAS0); format: biochemical, P. falciparum; set-up: full-length enzyme with prodomain and catalytic domain (pro-cat); 8xHis (C); made in house; host or cells: Spodoptera frugiperda (sf21) insect cells, baculovirus, secreted; compound added to the expression culture; conditions: insect cell expression
[6] = Plasmodium falciparum, 3D7, read-out: EC50, 3D7-WM4.1, WM4-resistant line 3D7-WM4.1
[7] = Plasmodium falciparum, 3D7, read-out: EC50, 3D7-WM5.1, WM5-resistant line 3D7-WM5.1

T1 sequence (Q8IAS0 222-573): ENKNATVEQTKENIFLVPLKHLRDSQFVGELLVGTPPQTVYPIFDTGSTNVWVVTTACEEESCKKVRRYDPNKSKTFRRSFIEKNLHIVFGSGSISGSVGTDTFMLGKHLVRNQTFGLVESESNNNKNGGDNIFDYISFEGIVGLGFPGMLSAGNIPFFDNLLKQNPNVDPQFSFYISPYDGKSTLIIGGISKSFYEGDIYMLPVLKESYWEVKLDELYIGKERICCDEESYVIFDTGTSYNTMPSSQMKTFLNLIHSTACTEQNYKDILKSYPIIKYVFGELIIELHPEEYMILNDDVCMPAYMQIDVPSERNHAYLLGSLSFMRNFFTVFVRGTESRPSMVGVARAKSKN
recombinant PMX protein (rPMX), sequence (Q8IAS0 27-573): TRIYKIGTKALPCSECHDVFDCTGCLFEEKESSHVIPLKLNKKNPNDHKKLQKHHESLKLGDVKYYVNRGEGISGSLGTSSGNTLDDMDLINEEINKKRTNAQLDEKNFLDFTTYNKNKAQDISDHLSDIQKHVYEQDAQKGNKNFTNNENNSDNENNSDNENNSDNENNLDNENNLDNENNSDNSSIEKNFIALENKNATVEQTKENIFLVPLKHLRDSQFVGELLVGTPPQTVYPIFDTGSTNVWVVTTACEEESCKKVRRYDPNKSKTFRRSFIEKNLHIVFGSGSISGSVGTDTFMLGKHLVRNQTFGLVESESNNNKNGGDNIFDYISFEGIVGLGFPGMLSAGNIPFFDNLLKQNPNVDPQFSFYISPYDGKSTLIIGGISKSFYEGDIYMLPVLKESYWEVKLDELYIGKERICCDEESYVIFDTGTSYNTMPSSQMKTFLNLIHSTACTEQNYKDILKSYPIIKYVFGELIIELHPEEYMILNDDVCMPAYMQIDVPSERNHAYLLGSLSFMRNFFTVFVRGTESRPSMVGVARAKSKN

Compound | EC50 [1, 6] [nM] | EC50 [1, 7] [nM] | EC50 (HepG2 cells) [nM] | effect on thermal stability of PMX (PMX) | change of EC50 when PMX expression was decreased (P. falciparum 3D7-PMX-HA) | stage of arrest of blood-stage development (3D7 parasite cultures) | egress of merozoites from the erythrocyte [2] | ability of merozoites to invade erythrocytes [3] | AMA1 processing in merozoites [4] | ASP processing [4] | MTRAP processing [4] | PMIX processing in parasites [4] | RAP1 processing [4] | RON3 processing [4] | Rh1 processed fragments, release into the supernatant [4] | SERA5 processing [4] | EBA140 processing [4] | EBA175 processing [4] | EBA181 processing [4] | MSP1 cleavage at the known SUB1 sites [4] | also measured
CC(NC(=O)c1cccc(C(c2ccccc2)N2C(=N)NC(C)(C(C)C)CC2=O)c1)c1ccccc1 (racemic) [WM4] | 113 ± 2.3 | 93.2 ± 2.04 | 14200 ± 2300 | stabilized PMX | significantly decreased | arrested at late schizont stage | potently inhibited egress of merozoites | significantly less able to invade | inhibited cleavage | ASP was processed | did not inhibit its processing | not inhibited | processing of RAP1 to p69 was inhibited | did not block processing | the large fragment cleaved by ROM4 was not released into the supernatant | accumulation of unprocessed SERA5 | inhibited by both compounds | inhibited a cleavage event | a predominant unprocessed form was evident | inhibited | EC50 ([1]; Plasmodium falciparum, 3D7, read-out: EC50, 3D7-WM4.2, WM4-resistant line 3D7-WM4.2, Figure S1): 140 ± 52.7 nM; EC50 ([1]; Plasmodium falciparum, 3D7, read-out: EC50, 3D7-WM5.2, WM5-resistant line 3D7-WM5.2, Figure S1): 142 ± 5.5 nM; EC50 ([1]; Plasmodium falciparum, 3D7, read-out: EC50, 3D7-WM5.3, WM5-resistant line 3D7-WM5.3, Figure S1): 135 ± 3.8 nM; EC50 ([1]; read-out: EC50, 3D7-WM4.1, WM4-resistant line 3D7-WM4.1): 93 nM and 65.9 nM; EC50 ([1]; read-out: EC50, 3D7-WM5.1, WM5-resistant line 3D7-WM5.1): 115 ± 18.8 nM; MSP1 cleavage by SUB2 [4]: also inhibited; PMX processing in the parasite [4]: blocked cleavage of PMX; Rh5 processing [4]: blocked processing of Rh5; Ripr processing [4]: inhibited; SUB2 second processing event [4]: inhibited this second processing event; processing of Rh2a, Rh2b and Rh4 [4]: significantly inhibited processing; cleavage of rPMX into catalytic and pro-domain [5]: cleavage was inhibited
CCC1(CC)CC(=O)N([C@@H]2CCOc3ccc(C(=O)N[C@H]4CC(C)(C)Oc5ccccc54)cc32)C(=N)N1 [WM382] | 1.88 ± 0.03 | 2.04 ± 0.05 | 24800 ± 2200 | significantly more thermostable | significantly decreased | arrested at late schizont stage | potently inhibited egress of merozoites | unable to invade erythrocytes | inhibited cleavage | cleavage was inhibited | inhibited processing, although not completely | inhibited processing | prevented production of both processed forms | did and the full-length protein, as well as an additional processed product (p55), were detected | the large fragment cleaved by ROM4 was not released into the supernatant | accumulation of unprocessed SERA5 | inhibited by both compounds | inhibited a cleavage event | a predominant unprocessed form was evident | inhibited | MSP1 cleavage by SUB2 [4]: higher activity; PMX processing in the parasite [4]: blocked cleavage of PMX; Rh5 processing [4]: blocked processing of Rh5; Ripr processing [4]: inhibited; SUB2 second processing event [4]: inhibited this second processing event; processing of Rh2a, Rh2b and Rh4 [4]: significantly inhibited processing; cleavage of rPMX into catalytic and pro-domain [5]: cleavage was inhibited
